Laboratory results from ChEMBL document CHEMBL4028801, “A multifactorial approach to hepatobiliary transporter assessment enables improved therapeutic compound development” (Toxicol Sci, 2013).
Counter-ions that a name gives are not always drawn. Positions of bridges follow the written chain, without caps; N, C: chain ends. Non-standard residues stand in square brackets, D forms with d. Residues, ends and D or L forms follow the SMILES beside them. Orn = NCCC[C@H](N)C(=O)O; Mpa = O=C(O)CCS

Experiments:
[1] = target: ATP-binding cassette sub-family C member 3 (Homo sapiens, UniProt O15438); assay: Inhibition of human MRP3 overexpressed in Sf9 insect cell membrane vesicles assessed as uptake of [3H]-estradiol-17beta-D-glucuronide in presence of ATP and GSH measured after 10 mins by membrane vesicle transport assay; assay type: ADME, cell-based
[2] = target: ATP-binding cassette sub-family C member 2 (Homo sapiens, UniProt Q92887); assay: Inhibition of human MRP2 overexpressed in Sf9 cell membrane vesicles assessed as uptake of [3H]-estradiol-17beta-D-glucuronide in presence of ATP and GSH measured after 20 mins by membrane vesicle transport assay
[3] = target: Bile salt export pump (Homo sapiens, UniProt O95342); assay: Inhibition of human BSEP overexpressed in Sf9 cell membrane vesicles assessed as uptake of [3H]-taurocholate in presence of ATP measured after 15 to 20 mins by membrane vesicle transport assay; assay type: ADME, cell-based
[4] = target: T1, ATP-binding cassette sub-family C member 4 (Homo sapiens, UniProt O15439); assay: Inhibition of human MRP4 overexpressed in Sf9 cell membrane vesicles assessed as uptake of [3H]-estradiol-17beta-D-glucuronide in presence of ATP and GSH measured after 20 mins by membrane vesicle transport assay; assay type: ADME, cell-based
T1 sequence (O15439 whole entry): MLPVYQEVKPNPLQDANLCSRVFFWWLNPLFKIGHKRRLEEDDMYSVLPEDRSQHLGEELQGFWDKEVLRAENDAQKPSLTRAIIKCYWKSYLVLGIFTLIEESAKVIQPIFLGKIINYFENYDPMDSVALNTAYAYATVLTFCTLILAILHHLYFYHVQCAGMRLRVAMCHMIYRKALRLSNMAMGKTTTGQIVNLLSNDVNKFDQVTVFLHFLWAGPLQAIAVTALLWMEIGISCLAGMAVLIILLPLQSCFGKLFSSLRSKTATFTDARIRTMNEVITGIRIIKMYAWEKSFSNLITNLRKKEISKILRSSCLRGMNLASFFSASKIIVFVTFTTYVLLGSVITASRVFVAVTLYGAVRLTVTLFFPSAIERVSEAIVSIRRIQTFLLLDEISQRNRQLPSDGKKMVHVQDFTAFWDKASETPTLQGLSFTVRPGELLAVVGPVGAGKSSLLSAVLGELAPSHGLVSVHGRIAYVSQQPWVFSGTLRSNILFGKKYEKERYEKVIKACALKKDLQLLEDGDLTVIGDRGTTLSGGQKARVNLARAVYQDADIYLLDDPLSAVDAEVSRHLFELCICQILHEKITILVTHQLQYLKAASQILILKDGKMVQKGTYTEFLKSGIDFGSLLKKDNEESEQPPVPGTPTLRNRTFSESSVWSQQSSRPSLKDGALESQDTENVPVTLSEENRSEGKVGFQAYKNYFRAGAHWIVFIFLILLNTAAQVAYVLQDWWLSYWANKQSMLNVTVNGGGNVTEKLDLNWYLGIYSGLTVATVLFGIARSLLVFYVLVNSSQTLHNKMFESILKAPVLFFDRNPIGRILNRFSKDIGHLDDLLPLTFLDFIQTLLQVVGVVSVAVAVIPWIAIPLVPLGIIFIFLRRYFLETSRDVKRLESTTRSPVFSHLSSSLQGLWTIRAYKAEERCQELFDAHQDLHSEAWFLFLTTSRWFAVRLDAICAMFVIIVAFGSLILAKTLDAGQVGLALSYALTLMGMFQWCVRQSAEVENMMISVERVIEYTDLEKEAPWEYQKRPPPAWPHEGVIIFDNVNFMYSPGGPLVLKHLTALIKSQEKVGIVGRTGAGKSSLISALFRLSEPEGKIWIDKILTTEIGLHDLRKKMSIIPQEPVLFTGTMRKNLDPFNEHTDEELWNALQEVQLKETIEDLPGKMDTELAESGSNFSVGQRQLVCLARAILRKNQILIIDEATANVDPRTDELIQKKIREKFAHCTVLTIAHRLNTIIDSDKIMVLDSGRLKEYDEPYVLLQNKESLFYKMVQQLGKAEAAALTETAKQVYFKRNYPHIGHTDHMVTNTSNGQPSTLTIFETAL

Chain of ATP-binding cassette sub-family C member 3 (O15438 whole entry): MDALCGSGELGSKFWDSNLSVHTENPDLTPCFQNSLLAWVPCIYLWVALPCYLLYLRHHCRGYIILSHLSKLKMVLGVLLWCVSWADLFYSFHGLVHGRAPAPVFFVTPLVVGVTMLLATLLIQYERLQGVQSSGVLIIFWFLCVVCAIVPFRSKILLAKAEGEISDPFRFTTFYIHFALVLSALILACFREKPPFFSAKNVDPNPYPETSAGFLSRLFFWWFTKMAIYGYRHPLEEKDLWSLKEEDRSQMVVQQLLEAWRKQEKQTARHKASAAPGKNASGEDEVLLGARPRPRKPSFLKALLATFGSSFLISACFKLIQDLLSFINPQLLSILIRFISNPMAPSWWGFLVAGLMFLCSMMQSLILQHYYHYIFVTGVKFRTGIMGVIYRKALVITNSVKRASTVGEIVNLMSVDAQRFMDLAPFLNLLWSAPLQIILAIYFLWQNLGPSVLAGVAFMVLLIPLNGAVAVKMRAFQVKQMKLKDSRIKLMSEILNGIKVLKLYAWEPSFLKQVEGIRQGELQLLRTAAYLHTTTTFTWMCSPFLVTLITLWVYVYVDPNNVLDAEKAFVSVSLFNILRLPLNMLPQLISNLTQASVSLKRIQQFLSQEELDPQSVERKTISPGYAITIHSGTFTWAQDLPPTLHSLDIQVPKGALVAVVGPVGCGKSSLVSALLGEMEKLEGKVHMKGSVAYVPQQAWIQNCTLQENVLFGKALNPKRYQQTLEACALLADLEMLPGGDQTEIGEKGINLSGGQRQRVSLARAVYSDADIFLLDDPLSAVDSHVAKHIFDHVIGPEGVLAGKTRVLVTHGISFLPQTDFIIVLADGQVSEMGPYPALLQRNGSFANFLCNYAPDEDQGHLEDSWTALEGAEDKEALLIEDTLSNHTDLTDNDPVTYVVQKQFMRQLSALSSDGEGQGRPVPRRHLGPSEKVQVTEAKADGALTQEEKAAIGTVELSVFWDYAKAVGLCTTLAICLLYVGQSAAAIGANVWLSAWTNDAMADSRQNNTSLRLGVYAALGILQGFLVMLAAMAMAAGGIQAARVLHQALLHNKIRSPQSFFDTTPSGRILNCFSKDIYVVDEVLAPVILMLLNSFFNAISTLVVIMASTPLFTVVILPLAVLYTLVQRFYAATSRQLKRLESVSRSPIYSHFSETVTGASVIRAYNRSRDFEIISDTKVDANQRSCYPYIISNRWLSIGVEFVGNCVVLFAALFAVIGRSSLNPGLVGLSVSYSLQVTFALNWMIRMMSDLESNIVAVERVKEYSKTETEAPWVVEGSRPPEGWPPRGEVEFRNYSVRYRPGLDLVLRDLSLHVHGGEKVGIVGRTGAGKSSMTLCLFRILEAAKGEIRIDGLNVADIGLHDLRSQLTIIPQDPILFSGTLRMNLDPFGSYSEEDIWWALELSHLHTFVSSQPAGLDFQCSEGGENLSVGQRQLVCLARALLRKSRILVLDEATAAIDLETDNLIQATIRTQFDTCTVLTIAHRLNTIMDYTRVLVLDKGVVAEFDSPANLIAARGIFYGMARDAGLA
Chain of Bile salt export pump (O95342 whole entry): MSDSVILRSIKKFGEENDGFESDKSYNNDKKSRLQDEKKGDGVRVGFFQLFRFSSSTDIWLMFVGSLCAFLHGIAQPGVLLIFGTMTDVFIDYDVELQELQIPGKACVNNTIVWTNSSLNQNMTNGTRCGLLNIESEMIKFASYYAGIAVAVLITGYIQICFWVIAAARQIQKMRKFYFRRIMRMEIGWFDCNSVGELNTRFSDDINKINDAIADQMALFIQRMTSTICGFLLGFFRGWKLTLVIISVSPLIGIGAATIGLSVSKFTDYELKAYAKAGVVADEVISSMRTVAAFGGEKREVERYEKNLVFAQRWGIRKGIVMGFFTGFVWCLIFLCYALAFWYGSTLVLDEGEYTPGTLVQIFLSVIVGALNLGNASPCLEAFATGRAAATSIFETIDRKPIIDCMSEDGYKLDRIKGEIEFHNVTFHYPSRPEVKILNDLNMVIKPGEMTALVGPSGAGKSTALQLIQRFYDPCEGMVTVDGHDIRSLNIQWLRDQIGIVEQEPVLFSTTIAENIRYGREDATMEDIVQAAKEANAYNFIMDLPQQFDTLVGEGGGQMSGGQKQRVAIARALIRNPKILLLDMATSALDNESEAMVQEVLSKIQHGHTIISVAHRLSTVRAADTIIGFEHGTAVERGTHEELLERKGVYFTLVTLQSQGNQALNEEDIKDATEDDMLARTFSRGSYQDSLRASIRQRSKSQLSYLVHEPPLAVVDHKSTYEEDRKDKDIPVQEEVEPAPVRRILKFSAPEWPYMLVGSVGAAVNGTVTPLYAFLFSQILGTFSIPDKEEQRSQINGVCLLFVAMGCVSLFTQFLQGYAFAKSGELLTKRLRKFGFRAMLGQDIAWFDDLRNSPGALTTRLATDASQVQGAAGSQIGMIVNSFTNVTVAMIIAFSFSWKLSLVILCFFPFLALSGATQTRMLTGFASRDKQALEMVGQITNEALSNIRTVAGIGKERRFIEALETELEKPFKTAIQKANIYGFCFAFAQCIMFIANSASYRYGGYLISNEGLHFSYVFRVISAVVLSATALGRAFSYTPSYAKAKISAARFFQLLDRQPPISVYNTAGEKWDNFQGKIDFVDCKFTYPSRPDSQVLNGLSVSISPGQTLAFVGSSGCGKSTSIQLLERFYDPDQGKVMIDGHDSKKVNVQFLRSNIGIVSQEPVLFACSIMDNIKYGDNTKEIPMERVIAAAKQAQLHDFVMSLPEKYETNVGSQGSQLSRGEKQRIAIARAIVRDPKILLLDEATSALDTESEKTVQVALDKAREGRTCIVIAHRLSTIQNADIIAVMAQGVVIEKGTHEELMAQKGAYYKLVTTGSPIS
Chain of ATP-binding cassette sub-family C member 2 (Q92887 whole entry): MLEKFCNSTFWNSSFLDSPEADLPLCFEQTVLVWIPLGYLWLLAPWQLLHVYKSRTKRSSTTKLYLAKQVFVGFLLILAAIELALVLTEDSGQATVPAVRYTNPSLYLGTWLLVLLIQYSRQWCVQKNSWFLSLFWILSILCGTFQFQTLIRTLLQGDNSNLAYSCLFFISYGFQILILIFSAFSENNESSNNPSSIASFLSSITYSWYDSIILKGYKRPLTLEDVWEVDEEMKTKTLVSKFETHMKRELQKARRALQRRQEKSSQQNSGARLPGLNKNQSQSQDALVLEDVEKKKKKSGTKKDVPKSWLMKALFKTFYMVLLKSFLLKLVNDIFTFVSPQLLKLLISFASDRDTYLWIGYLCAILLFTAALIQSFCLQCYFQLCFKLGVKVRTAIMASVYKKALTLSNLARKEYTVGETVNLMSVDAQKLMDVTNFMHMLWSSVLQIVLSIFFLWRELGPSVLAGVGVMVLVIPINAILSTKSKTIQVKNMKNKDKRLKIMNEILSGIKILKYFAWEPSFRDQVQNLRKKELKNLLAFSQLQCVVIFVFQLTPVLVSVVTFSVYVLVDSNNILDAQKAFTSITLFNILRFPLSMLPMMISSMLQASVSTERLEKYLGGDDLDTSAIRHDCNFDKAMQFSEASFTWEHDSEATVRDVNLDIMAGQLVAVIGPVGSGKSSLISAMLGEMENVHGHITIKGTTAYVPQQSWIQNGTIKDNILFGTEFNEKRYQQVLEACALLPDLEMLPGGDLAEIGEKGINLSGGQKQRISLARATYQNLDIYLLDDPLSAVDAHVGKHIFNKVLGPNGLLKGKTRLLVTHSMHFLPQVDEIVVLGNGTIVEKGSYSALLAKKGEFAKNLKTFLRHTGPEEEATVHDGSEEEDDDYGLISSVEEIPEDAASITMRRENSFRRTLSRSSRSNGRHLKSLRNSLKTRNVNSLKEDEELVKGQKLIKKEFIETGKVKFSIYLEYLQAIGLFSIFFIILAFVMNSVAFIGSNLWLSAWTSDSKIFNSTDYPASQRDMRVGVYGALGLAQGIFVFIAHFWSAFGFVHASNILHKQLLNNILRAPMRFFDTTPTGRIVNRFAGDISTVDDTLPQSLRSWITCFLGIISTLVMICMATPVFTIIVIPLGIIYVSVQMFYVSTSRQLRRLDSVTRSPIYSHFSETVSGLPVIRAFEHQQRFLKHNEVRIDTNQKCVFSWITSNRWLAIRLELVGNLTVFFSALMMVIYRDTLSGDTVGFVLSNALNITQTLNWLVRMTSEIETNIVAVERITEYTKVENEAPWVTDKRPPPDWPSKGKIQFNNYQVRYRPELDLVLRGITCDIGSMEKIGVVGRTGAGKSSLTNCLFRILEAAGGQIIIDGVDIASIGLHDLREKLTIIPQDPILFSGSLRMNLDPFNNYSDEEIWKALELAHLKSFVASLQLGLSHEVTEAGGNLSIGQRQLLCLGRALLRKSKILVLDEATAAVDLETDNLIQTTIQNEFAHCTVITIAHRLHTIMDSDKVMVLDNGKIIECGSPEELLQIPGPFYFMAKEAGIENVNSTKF

Structure (SMILES)	IC50 [1] [µM]	IC50 [2] [µM]	IC50 [3] [µM]	IC50 [4] [µM]
CC(C)NCC(O)COc1ccc(CC(N)=O)cc1 (stereo unspecified) [ATENOLOL]	> 133	> 133	> 133	> 133
CNCC[C@@H](Oc1ccccc1C)c1ccccc1 [ATOMOXETINE HYDROCHLORIDE]	> 133	> 133	> 133	> 133
CCOc1ccc(C[C@H]2NC(=O)CCSSC[C@@H](C(=O)N3CCC[C@H]3C(=O)N[C@@H](CCCN)C(=O)NCC(N)=O)NC(=O)[C@H](CC(N)=O)NC(=O)[C@H]([C@@H](C)O)NC(=O)[C@H]([C@@H](C)CC)NC2=O)cc1 [ATOSIBAN] ([Mpa][dY](Et)ITNCP[Orn]G-NH2; disulfide 1-6)	> 133	> 133	> 133	> 133
COc1ccc(CC2c3cc(OC)c(OC)cc3CC[N+]2(C)CCC(=O)OCCCCCOC(=O)CC[N+]2(C)CCc3cc(OC)c(OC)cc3C2Cc2ccc(OC)c(OC)c2)cc1OC (stereo unspecified) [ATRACURIUM BESYLATE]	> 133	> 133	> 133	> 133
CC[C@H]1OC(=O)[C@H](C)[C@@H](O[C@H]2C[C@@](C)(OC)[C@@H](O)[C@H](C)O2)[C@H](C)[C@@H](O[C@@H]2O[C@H](C)C[C@H](N(C)C)[C@H]2O)[C@](C)(O)C[C@@H](C)CN(C)[C@H](C)[C@@H](O)[C@]1(C)O [AZITHROMYCIN]	> 133	> 133	> 133	> 133
CC1(C)S[C@@H]2[C@H](NC(=O)[C@H](NC(=O)N3CCNC3=O)c3ccccc3)C(=O)N2[C@H]1C(=O)O [AZLOCILLIN SODIUM]	> 133	> 133	> 133	> 133
NCC(CC(=O)O)c1ccc(Cl)cc1 (stereo unspecified) [BACLOFEN]	> 133	> 133	> 133	> 133
O=C(Cn1ccnc1[N+](=O)[O-])NCc1ccccc1 [BENZNIDAZOLE]	> 133	> 133	> 133	> 133
CCOC(=O)c1ccc(N)cc1 [BENZOCAINE]	> 133	> 133	> 133	> 133
C[C@H]1C[C@H]2[C@@H]3CCC4=CC(=O)C=C[C@]4(C)[C@@]3(F)[C@@H](O)C[C@]2(C)[C@@]1(O)C(=O)CO [BETAMETHASONE]	> 133	> 133	> 133	> 133
O=C(O)CCNC(=O)c1ccccc1 [BETAMIPRON]	> 133	> 133	> 133	> 133
c1ccc(-c2ccc(C(c3ccccc3)n3ccnc3)cc2)cc1 (stereo unspecified) [BIFONAZOLE]	> 133	> 133	27.1	> 133
CC(=O)Oc1ccc(C(c2ccc(OC(C)=O)cc2)c2ccccn2)cc1 [BISACODYL]	> 133	> 133	> 133	> 133
CC(C)NCC(O)COc1ccc(COCCOC(C)C)cc1 (stereo unspecified) [BISOPROLOL FUMARATE]	> 133	> 133	> 133	> 133
CC(C)C[C@H](NC(=O)[C@H](Cc1ccccc1)NC(=O)c1cnccn1)B(O)O [BORTEZOMIB]	> 133	> 133	> 133	> 133
CCN[C@H]1CN(CCCOC)S(=O)(=O)c2sc(S(N)(=O)=O)cc21 [BRINZOLAMIDE]	> 133	> 133	> 133	> 133
CCN(CC)CCNC(=O)c1cc(Br)c(N)cc1OC [BROMOPRIDE]	> 133	> 133	> 133	> 133
O=[N+]([O-])C(Br)(CO)CO [BRONOPOL]	> 133	> 133	> 133	> 133
CCCCN1CCCCC1C(=O)Nc1c(C)cccc1C (stereo unspecified) [BUPIVACAINE HYDROCHLORIDE]	> 133	> 133	> 133	> 133
